# Laboratory results from publication PMC4431178, “Molecular basis of sugar recognition by collectin-K1 and the effects of mutations associated with 3MC syndrome” (BMC Biology, 2015).
# Assays:
# CL-K1 fragment = target: T1, CL-K1 fragment (Homo sapiens, UniProt Q9BWP8); test: Ca2+ binding to the CL-K1 fragment measured by intrinsic fluorescence
# T1 construct: made in house
# Procedure: (§1) Figure 4 Ca^2+ stabilises the CRDs of CL-K1. A) Fluorescence spectra of the CL-K1 fragment in different buffers. The λex was 280 nm. B) Ca^2+ binding to the CL-K1 fragment measured by fluorescence. […] C) Urea denaturation in the presence and absence of Ca^2+ (2 mM). […] Samples were separated by SDS-PAGE and gels were scanned to determine the amount of CL-K1 remaining. The amount of trypsin was 0.5% (w/w). The intensities of bands corresponding to the neck and CRD and the CRD alone were combined. A sample gel is shown in F). E) Proteolysis of CL-K1 in the presence and absence of Ca^2+. Two fold serial dilutions of trypsin were used at a starting concentration of 2% (w/w). In all experiments data are mean ± error from two separate experiments. CL-K1, collectin-K1; CRD, carbohydrate-recognition domain.
# All experiments were carried out using a Fluoromax-4 (Horiba Jobin Yvon, Horiba UK Ltd (Middlesex, UK)) instrument with excitation wavelength at 280 nm, slit widths of 2 nm and emission wavelength range of 300 to 400 nm. The λex was 280 nm. Protein samples (0.5 μM) in 10 mM Tris–HCl, pH 7.4 containing 140 mM NaCl were measured in the presence of 2 mM CaCl2, 1 mM EDTA and 6 M urea.
# CL-K1 [1] = target: T2, CL-K1 (Homo sapiens, UniProt Q9BWP8); test: Proteolysis of CL-K1 by trypsin at increasing Ca2+ concentrations; type: binding; set-up: made in house; conditions: trypsin 0.5% (w/w), read-out: apparent KD for calcium
# Procedure: as §1
# Target sequence in this assay (Q9BWP8 116-271): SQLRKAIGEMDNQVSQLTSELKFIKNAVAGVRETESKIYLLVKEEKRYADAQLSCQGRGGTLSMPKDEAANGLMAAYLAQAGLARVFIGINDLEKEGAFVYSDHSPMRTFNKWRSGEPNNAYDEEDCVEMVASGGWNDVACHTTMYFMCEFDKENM
# CL-K1 [2] = target: T2, CL-K1; test: Glycan-array screen with fluorophore-labelled CL-K1; type: binding; set-up: For full-length protein, the cDNA was cloned into the polylinker region of expression vector pED; made in house; host or cells: Chinese hamster ovary cells; conditions: for relative fluorescence, With Ca^2+ / relative fluorescence, Without Ca^2+: glycan array, ± SE from six replicates; for relative fluorescence, With Ca^2+: CL-K1 200 μg/ml; for relative fluorescence, With Ca^2+ / glycan-array binding by CL-K1: with Ca2+; for relative fluorescence, Without Ca^2+: without Ca2+
# Text: To examine binding to individual glycans, fluorophore-labelled CL-K1 was used to probe a broad screen of mammalian carbohydrates using the Core H Glycan array technology facility at The Consortium for Functional Glycomics. […] The relative fluorescence signal provides an accurate indication of the order of affinities. Consistent with the glycoprotein data, the best ligands were all high-mannose oligosaccharides (Figure 2A and Additional file 1), but not all of these were recognised. Mammalian high-mannose structures comprise a Man5 core attached to the protein via two GlcNAc residues, with α1-2 linked sugars at the non-reducing termini (Figure 2C). CL-K1 only recognised those structures containing at least one terminal Man(α1-2)Man epitope. For example, it bound tightly to Man6, Man7, Man8 and Man9 but not to the Man5 core (ligand 310) that comprises only α1-3 and α1-6 linkages. […] This pattern of recognition is different from other collectins, such as MBL and pulmonary-surfactant protein D that typically recognise the terminal sugar alone (mannose, fucose or N-acetyglucosamine). It is also different from other C-type lectins, such as DC-SIGN or DC-SIGNR that target larger high-mannose oligosaccharides preferentially (Man5 to Man9). To quantify the differences in affinities, we compared binding to three different epitopes that all form part of a high-mannose oligosaccharide. […] Thus, CL-K1 primarily recognises the terminal disaccharide of the glycan, rather than the terminal sugar alone, explaining its unusual binding properties.
# Labelled protein (70 μL) was applied to the printed surface of the microarray chip coated with natural and synthetic glycans via amino linkers. The chip was covered and incubated at room temperature in a humidified chamber for one hour. Binding was detected by measuring the fluorescence associated with each glycan. Data are the average of six replicates.
# Target sequence in this assay (Q9BWP8 26-271): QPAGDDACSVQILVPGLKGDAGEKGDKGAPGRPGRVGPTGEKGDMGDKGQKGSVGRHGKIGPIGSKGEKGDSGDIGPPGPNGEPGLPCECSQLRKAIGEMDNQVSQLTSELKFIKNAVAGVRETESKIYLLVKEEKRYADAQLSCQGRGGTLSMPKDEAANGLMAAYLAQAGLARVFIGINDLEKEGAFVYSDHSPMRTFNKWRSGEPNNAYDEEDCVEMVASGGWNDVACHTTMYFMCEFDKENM
# CL-K1 [3] = target: T2, CL-K1; test: Inhibition of CL-K1 binding to immobilized yeast invertase by high-mannose epitopes; set-up: For full-length protein, the cDNA was cloned into the polylinker region of expression vector pED; made in house; host or cells: Chinese hamster ovary cells; conditions: relative to Man(α1-2)Man IC50 of 0.02 mM
# Target sequence in this assay (Q9BWP8 26-271): as above
# [4] = system: Chinese hamster ovary cells; test: Secretion of wild type and variant CL-K1s from mammalian cells (immunoblot of medium); type: cell-based; conditions: transfected CHO cells, serum-free medium, anti-CL-K1 immunoblot
# Text: Figure 5 No secretion of variant CL-K1s containing mutations associated with 3MC syndrome. A) Structure of the CRD of CL-K1 showing the position of mutations associated with 3MC syndrome. Secondary structure features are labelled based on the structure of MBL [38]. Polar interactions are indicated by dotted lines. B) Secretion of wild type and variant CL-K1s from mammalian cells. […] Secreted CL-K1 was detected using rabbit polyclonal anti-CL-K1 antibodies. Purified wild-type CL-K1 (approximately 20 ng) was used as a positive control. CL-K1, collectin-K1; CRD, carbohydrate-recognition domain; MBL, mannan-bindng lectin; 3MC, Carnevale, Mingarelli, Malpuech and Michels.
# For full-length protein, the cDNA was cloned into the polylinker region of expression vector pED [29] and protein was produced in Chinese hamster ovary cells and purified by affinity chromatography on mannose-Sepharose columns as described previously for MBL [28, 30]. […] Cells were grown in Power Prime broth (Molecular Dimensions Limited (Newmarket, UK)), induced during mid-log phase with IPTG (1 mM), and harvested after growth at 37°C for an additional 16 hours.
# yeast invertase = test: Binding of biotinylated invertase to full length CL-K1 and trimeric fragments; conditions: plates coated with CL-K1 protein
# Text: Figure 6 Characterisation of CL-K1 fragments containing disease-associated mutations. […] The elution positions of conalbumin (75 kDa), ovalbumin (44 kDa) and ribonuclease A (13.7 kDa) are indicated. […] Bottom, None of the three CL-K1 variants interacts with the column, even in the presence of Ca^2+. B) CD spectra of the wild-type CL-K1 fragment and the disease-associated CL-K1 variants. […] Values are the mean ± error from duplicate measurements. Tighter binding of the full-length protein is due to its increased avidity. CL-K1, collectin-K1; EDTA, ethylenediaminetetraacetic acid.
# After washing, wells were incubated with 1:2000 dilution of goat peroxidase conjugated anti-biotin antibody (Sigma) and developed with tetramethylbenzidine (Sigma). Absorbance was measured at 450 nm.
# complement component C3b = test: Complement activation: C3b deposition on mannan in lectin-depleted human serum; type: biochemical; conditions: 1/100 human serum depleted of endogenous lectins
# Procedure: (§2) Figure 1 Glycoprotein binding and complement activation by CL-K1. A) Immunoblot of CL-K1 binding to immobilised mammalian and yeast glycoproteins. B) Surface plasmon resonance of CL-K1 binding to glycoproteins. […] C3b and its breakdown products were detected by absorbance using an anti-human C3c antibody with alkaline phosphatase-conjugated goat anti-rabbit secondary antibody and p-nitrophenyl phosphate as the substrate. Protein concentrations were calculated based on the molecular masses of CL-K1 and MBL trimers (78 kDa in each case). CL-K1, collectin-K1; MBL, mannan-binding lectin.
# After incubation at 37°C for one hour and washes with buffer containing 0.5% Tween-20, C3b was detected using rabbit anti-human C3c antibody (Dako UK Ltd (Ely, UK)) with alkaline phosphatase-conjugated goat anti-rabbit secondary antibody (Sigma) and p-nitrophenyl phosphate as the substrate.
# CL-K1 [5] = target: T2, CL-K1; test: Immunoblot of CL-K1 binding to immobilised glycoproteins; set-up: For full-length protein, the cDNA was cloned into the polylinker region of expression vector pED; made in house; host or cells: Chinese hamster ovary cells; conditions: biotinylated CL-K1 0.06 mg/ml, glycoproteins spotted on nitrocellulose
# Procedure: as §2
# Target sequence in this assay (Q9BWP8 26-271): as above
# Two-fold serial dilutions of glycoprotein (0.5 μl at a starting concentration of 2 mg/ml) were spotted on to a nitrocellulose membrane and allowed to dry for 30 minutes at room temperature. […] After washing, the membrane was incubated with Streptavidin-ALP conjugate (2ug/ml; Life Technologies Ltd (Paisley, UK)) and developed with BCIP-NBT substrate (Sigma).
# CL-K1 [6] = target: T2, CL-K1; test: Surface plasmon resonance of CL-K1 binding to glycoproteins; set-up: For full-length protein, the cDNA was cloned into the polylinker region of expression vector pED; made in house; host or cells: Chinese hamster ovary cells; conditions: glycoprotein starting concentration 200 nM
# Procedure: as §2
# Target sequence in this assay (Q9BWP8 26-271): as above
# CL-K1 was immobilised on the surface of a GLM sensor chip (Bio-Rad Laboratories Ltd (Hemel Hempstead, UK)) by amine coupling. Binding was measured in 10 mM Tris–HCl, pH 7.4 containing 140 mM NaCl, 2 mM CaCl2 and 0.005% Tween 20 at a flow rate of 25 μl/minute and at 25°C. The protein surface was regenerated in buffer containing 1 M NaCl and 5 mM EDTA.
# T1 sequence (Q9BWP8 116-271): as the sequence (Q9BWP8 116-271) above
Compound,"relative fluorescence, With Ca^2+ (CL-K1 [2])","relative fluorescence, Without Ca^2+ (CL-K1 [2])",further results
[Ca+2] [Ca^2+],–,–,"Kd (CL-K1 fragment; read-out: KD for Ca2+ by titration): 430 µM; Hill coefficient of Ca2+ binding (CL-K1 fragment; trimeric neck+CRD fragment, intrinsic fluorescence): 2.4; Kd (CL-K1 [1]): ~1000 µM"
OC[C@H]1O[C@H](O)[C@H](O)[C@@H](O)[C@H]1O [compound 6],294 ± 167,870 ± 157,–
OC[C@H]1O[C@H](O)[C@H](O)[C@@H](O)[C@@H]1O [compound 7],250 ± 80,952 ± 297,–
OC[C@H]1O[C@H](O)[C@@H](O)[C@@H](O)[C@@H]1O [compound 8],566 ± 230,1156 ± 233,–
CC1OC(O)C(O)C(O)C1O (stereo not shown) [compound 10],431 ± 27,1097 ± 138,–
CC1OC(O)C(O)C(O)C1O (stereo not shown) [compound 11],546 ± 98,1922 ± 358,–
OC[C@H]1O[C@@H](O)[C@H](O)[C@@H](O)[C@H]1O [compound 16],941 ± 308,4062 ± 774,–
OC[C@H]1O[C@@H](O)[C@H](O)[C@@H](O)[C@@H]1O [compound 17],831 ± 505,4473 ± 1785,–
OC[C@H]1O[C@@H](O)[C@@H](O)[C@@H](O)[C@@H]1O [compound 18],99 ± 9,570 ± 170,–
CC(=O)N[C@@H]1[C@@H](O)[C@H](O)[C@@H](CO)O[C@H]1O [compound 20],170 ± 91,535 ± 116,–
CC(=O)N[C@@H]1[C@@H](O)[C@H](O)[C@@H](CO)O[C@H]1O [compound 21],499 ± 293,1798 ± 141,–
OCC1OC(OCC2OC(OCC3OC(O)C(O)C(OC4OC(CO)C(O)C(O)C4O)C3O)C(O)C(OC3OC(CO)C(O)C(O)C3O)C2O)C(O)C(O)C1O (stereo not shown) [compound 310],1000 ± 468,768 ± 303,glycan-array binding by CL-K1 (CL-K1 [2]): not
"NCCCCCO[C@H]1O[C@H](CO[C@H]2O[C@H](CO[C@H]3O[C@H](CO)[C@@H](O)[C@H](O)[C@@H]3O[C@H]3O[C@H](CO)[C@@H](O)[C@H](O)[C@@H]3O)[C@@H](O)[C@H](O[C@H]3O[C@H](CO)[C@@H](O)[C@H](O)[C@@H]3O[C@H]3O[C@H](CO)[C@@H](O)[C@H](O)[C@@H]3O)[C@@H]2O)[C@@H](O)[C@H](O[C@H]2O[C@H](CO)[C@@H](O)[C@H](O)[C@@H]2O[C@H]2O[C@H](CO)[C@@H](O)[C@H](O)[C@@H]2O[C@H]2O[C@H](CO)[C@@H](O)[C@H](O)[C@@H]2O)[C@@H]1O [ligand 312, Manα1-2Manα1-2Manα1-3(Manα1-2Manα1-6(Manα1-2Manα1-3)Manα1-6)Manα-Sp9]",–,–,glycan-array binding by CL-K1 (CL-K1 [2]): bound tightly
OC[C@H]1OC(O)[C@@H](O)[C@@H](O)[C@@H]1O (stereo partly shown) [mannose],–,–,fold by which inhibition by Man(α1-2)Man is greater than for this ligand (CL-K1 [3]): > 300 fold
CL-K1: full-length recombinant human collectin-K1 produced in Chinese hamster ovary cells,–,–,"secretion into medium [4]: secreted; binding to yeast invertase (yeast invertase): bound; complement activation, fold lower activity than human MBL (complement component C3b): 2.5 fold"
Invertase: yeast invertase glycoprotein from Sigma-Aldrich,–,–,binding of CL-K1 on blot (CL-K1 [5]): binding; binding to CL-K1 by surface plasmon resonance (CL-K1 [6]): bound tightly
Mannan,–,–,binding of CL-K1 on blot (CL-K1 [5]): binding; binding to CL-K1 by surface plasmon resonance (CL-K1 [6]): bound tightly
fetuin: Bovine fetuin from Sigma-Aldrich,–,–,binding of CL-K1 on blot (CL-K1 [5]): not
thyroglobulin: Bovine thyroglobulin from GE Healthcare,–,–,binding of CL-K1 on blot (CL-K1 [5]): binding
